Results as given in patent US9290741B2, “Simplified methods for generating endothelial cells from human pluripotent stem cells under defined conditions” (Wisconsin Alumni Research Foundation, priority 2013, dated 2016).

Assays:
[1] = tested on: hPSC-derived endothelial cells; assay: Monolayer integrity: 40-kDa FITC-dextran permeability; format: cell-based, human; conditions: 100 ng/mL VEGF or 10 μM oME, 24 hr of treatment, versus control
[2] = tested on: hPSC-derived endothelial cells; assay: Monolayer integrity: transendothelial electrical resistance (TEER); format: cell-based, human; conditions: 100 ng/mL VEGF or 10 μM oME, versus control
19-9-11 iPSCs = assay: Angioblast differentiation of hPSCs, flow cytometry of CD34 and CD31 at day 5; format: cell-based, human; conditions: for induction of angioblast differentiation (percentage of CD34^+CD31^+ cells): 0.6 μM CHIR98014 or 0.6 μM BIO-acetoxime 2 days in LaSR medium, then StemPro-34 3 days, no VEGF, compared with 6 μM CHIR99021
Procedure: Cells were then cultured in mTeSR1, changed daily. At day 0, cells were treated with 6-10 μM CHIR99021 (Selleckchem) for 2 days in LaSR basal medium, which consists of Advanced DMEM/F12, 2.5 mM GlutaMAX, and 60 μg/ml ascorbic acid (Sigma, A8960). […] Cells were dissociated into single cells with Accutase for 10 min and then fixed with 1% paraformaldehyde for 20 min at room temperature and stained with primary and secondary antibodies (Table 2) in PBS plus 0.1% Triton X-100 and 0.5% BSA. Data were collected on a FACSCaliber flow cytometer (Becton Dickinson) and analyzed using FlowJo.

19-9-11 ishcat iPSCs = assay: Flow cytometry analysis of Brachyury expression during differentiation; format: cell-based, human; conditions: 6 μM CHIR99021, in the absence of dox
Procedure: FIG. 8 Knockdown of β-catenin abolishes endothelial differentiation of hPSCs 19-9-11 ishcat iPSCs were cultured in LaSR basal medium containing 6 μM CH and/or 2 μg/ml doxycycline for 2 days. Flow cytometry analysis of Brachyury expression was performed after 2 days of differentiation.
Cells were dissociated into single cells with Accutase for 10 min and then fixed with 1% paraformaldehyde for 20 min at room temperature and stained with primary and secondary antibodies (Table 2) in PBS plus 0.1% Triton X-100 and 0.5% BSA. Data were collected on a FACSCaliber flow cytometer (Becton Dickinson) and analyzed using FlowJo.

H9 cells = assay: Angioblast differentiation of hPSCs with PD0325901 addition, flow cytometry of CD34 and CD31 at day 5; format: cell-based, human; conditions: 1 μM PD0325901 added during differentiation induced with 6 μM CHIR99021
Procedure: FIG. 2 CD34^+CD31^+ angioblast differentiation induced by Gsk3 inhibitors in hPSCs is β-catenin dependent. […] At day 5, the percentage of CD34^+CD31^+ cells in culture was assessed by flow cytometry. (B) 19-9-11 iscramble and 19-9-11 […] cultured in mTeSR1 containing 2 μg/ml doxycycline. After 3 days, mRNA was collected and β-catenin expression evaluated by qPCR. Error bars represent the s.e.m. of 3 biological replicates. # […] versus iscramble; […] cultured in LaSR medium containing 6 μM CHIR99021 for 2 days before exposure to StemPro-34 medium for 3 days, with 2 μg/ml dox addition at the indicated times. 5 days after initiation of differentiation, cells were analyzed for CD34 and CD31 expression by flow cytometry. Error bars represent the s.e.m. of three independent experiments. […] hPSCs maintained on a MatrigelTM-coated surface in mTeSR1 were dissociated into single cells with Accutase (Life Technologies) at 37° C. for 5 min and then seeded onto a MatrigelTM-coated cell culture dish at 50,000 cell/cm^2 in mTeSR1 supplemented with 5 μM ROCK inhibitor Y-27632 (Selleckchem)(day -3) for 24 hours. Cells were then cultured in mTeSR1, changed daily. […] Data were collected on a FACSCaliber flow cytometer (Becton Dickinson) and analyzed using FlowJo.

[3] = tested on: hPSC-derived endothelial cells; assay: Flow cytometry analysis of ICAM-1 surface expression after TNF-α treatment; format: cell-based, human; conditions: 10 ng/mL TNF-α for 16 hours versus unstimulated cells
Text: FIG. 6 Characterization of endothelial cells derived from hPSCs (A) 19-9-11 iPSCs were differentiated as illustrated in FIG. 3A using LaSR basal medium. At day 5, CD34^+ cells were enriched and cultured in endothelial medium on laminin-coated plates. At different time points, the cell numbers were counted. (B-D) the purified day 60 endothelial cells were immunostained with (B) VE-cadherin and CD31, and tested for (C) tube-forming ability upon VEGF treatment and the ability to (D) uptake acetylated low-density lipoprotein (AcLDL). (E) Flow cytometry analysis of surface protein expression of ICAM-1 of untreated cells or cells treated with 10 ng/mL TNF-α for 16 hours. Error bars represent the s.e.m. of three independent experiments. (F-G) Barrier phenotype of the hPSC-derived endothelial cells. […] Barrier function was assessed by measuring transendothelial electrical resistance (TEER) 48 hours after seeding. […] (F) Transendothelial electrical resistance (TEER) was measured as a function of time, and normalized to the initial TEER value (36.7±4.3 Ωcm^2. (G) TEER and fluorescent dextran permeability were measured 24 hours after plating. Error bars represent the s.e.m. of three biological samples. ** p<0.005, VEGF (or oME) versus control; t test. […]

[4] = tested on: hPSC-derived endothelial cells; conditions: 50 ng/ml VEGF, 24 h; day 60 endothelial cells
Procedure: To assess the formation of capillary structures, 1×10^5 endothelial cells in 0.4 ml EGM-2 medium (Lonza) supplemented with 50 ng/ml VEGF (R&D Systems) were plated into one well of 24-well tissue culture plate pre-coated with 250 μl Matrigel™ (BD Bioscience). Tube formation was observed by light microscopy after 24 h of incubation.

CO[C@@H]1[C@@H]2OP(=O)(O)OC[C@H]2O[C@H]1n1c(Sc2ccc(Cl)cc2)nc2c(N)ncnc21 [8-pCPT-2′O-Me-cAMP, 8-(4-chlorophenylthio)-2′-O-Me-cAMP]
dextran permeability (40 kD) [1]: decreased | transendothelial electrical resistance (TEER) [2]: increased

Cc1c[nH]c(-c2cnc(NCCNc3ccc(C#N)cn3)nc2-c2ccc(Cl)cc2Cl)n1 [CHIR99021]
CD31^+CD34^+ angioblasts generated (19-9-11 iPSCs; 6-10 μM CHIR99021 2 days, then 3 days StemPro-34 without VEGF, day 5): 25% | CD34^+CD31^+ cells generated (19-9-11 iPSCs; CHIR99021 (6 μM) 2 days in LaSR basal medium, then 3 days StemPro-34 with or without VEGF, day 5): more than 20% | CD34^+CD31^+ cells produced (19-9-11 iPSCs; LaSR basal medium, CHIR99021 2 days then 3 days without, seeding density 50,000 cells per cm2 at day -3): 55% | CD34^+CD31^+ cells in 5 days (19-9-11 iPSCs; single basal medium: LaSR basal medium with CHIR99021 2 days, then 3 days same medium without): 25% | CD34^+CD31^+ cells in 5 days (19-9-11 iPSCs; single basal medium: RPMI/B27 or EC medium containing serum, with CHIR99021 2 days, then 3 days without): not supporting differentiation to any detectable CD34^+CD31^+ cells | Brachyury expressing cells by day 2 (19-9-11 ishcat iPSCs): virtually pure population

O=C(NOC[C@H](O)CO)c1ccc(F)c(F)c1Nc1ccc(I)cc1F [PD0325901]
effect on CD34^+CD31^+ cell differentiation (H9 cells): substantially diminished

BIO-acetoxime
induction of angioblast differentiation (percentage of CD34^+CD31^+ cells) (19-9-11 iPSCs): effectively induced angioblast differentiation to a similar extent as CHIR99021

CHIR98014
induction of angioblast differentiation (percentage of CD34^+CD31^+ cells) (19-9-11 iPSCs): effectively induced angioblast differentiation to a similar extent as CHIR99021

TNFα
expression of ICAM1 [3]: greatly increased

VEGF
vascular tube formation in Matrigel matrix [4]: formed vascular tubes | effect of VEGF treatment on yield of CD34^+CD31^+ cells (19-9-11 iPSCs; VEGF in StemPro-34 for 3 days after CHIR99021, day 5): did not significantly increase | dextran permeability (40 kD) [1]: increase | transendothelial electrical resistance (TEER) [2]: sustained decrease
